Values quoted from earlier work as cited in US20230374563A1, “Methods for Antimicrobial Susceptibility Testing” (MicrobeDX, Inc., priority 2017, published 2023).
Values after ≈ are worked out from the molar mass of the structure shown.

System: bacteria
Conditions: for CLSI MIC Cutoffs for (Urine) AST Determination I / MIC Criteria CLSI M100 (2018) I: Intermediate; for CLSI MIC Cutoffs for (Urine) AST Determination R / MIC Criteria CLSI M100 (2018) R: Resistant; for CLSI MIC Cutoffs for (Urine) AST Determination S / MIC Criteria CLSI M100 (2018) S: Susceptible; for MIC Criteria CLSI M100 (2018) S: cefazolin cutoffs for cases not identified as uncomplicated

Row | Compound | CLSI MIC Cutoffs for (Urine) AST Determination I | CLSI MIC Cutoffs for (Urine) AST Determination R | CLSI MIC Cutoffs for (Urine) AST Determination S | MIC Criteria CLSI M100 (2018) I [µg/mL] | MIC Criteria CLSI M100 (2018) R [µg/mL] | MIC Criteria CLSI M100 (2018) S [µg/mL]
1 | NCC[C@H](O)C(=O)N[C@@H]1C[C@H](N)[C@@H](O[C@H]2O[C@H](CN)[C@@H](O)[C@H](O)[C@H]2O)[C@H](O)[C@H]1O[C@H]1O[C@H](CO)[C@@H](O)[C@H](N)[C@H]1O [Amikacin] | 32 µg/mL | ≥64 µg/mL | ≤16 µg/mL |  |  | 
2 | CC1(C)S[C@@H]2[C@H](NC(=O)[C@H](N)c3ccccc3)C(=O)N2[C@H]1C(=O)O [Ampicillin] | 16 µg/mL | ≥32 µg/mL | <8 µg/mL | 16 (≈ 45.8 µM) | ≥32 | ≤8
3 | CO/N=C(\C(=O)N[C@@H]1C(=O)N2C(C(=O)O)=C(CSc3nc(=O)c(=O)[nH]n3C)CS[C@H]12)c1csc(N)n1 [Ceftriaxone] | 2 µg/mL | ≥4 µg/mL | ≤1 µg/mL | 2 (≈ 3.61 µM) | ≥4 | ≤1
4 | C[C@@H](O)[C@H]1C(=O)N2C(C(=O)O)=C(S[C@@H]3CN[C@H](C(=O)Nc4cccc(C(=O)O)c4)C3)[C@H](C)[C@H]12 [Ertapenem] | 1 µg/mL | ≥2 µg/mL | ≤0.5 µg/mL |  |  | 
5 | C[C@@H]1O[C@@H]1P(=O)(O)O [Fosfomycin] | 128 µg/mL | ≥256 µg/mL | ≤64 µg/mL |  |  | 
6 | C[C@@H](O)[C@H]1C(=O)N2C(C(=O)O)=C(S[C@@H]3CN[C@H](C(=O)N(C)C)C3)[C@H](C)[C@H]12 [Meropenem] | 2 µg/mL | ≥4 µg/mL | ≤1 µg/mL |  |  | 
7 | Amoxicillin/Clavulanate [Amox/Clav] | 16/8 | ≥32/16 | ≤8/4 |  |  | 
8 | Gentamicin | 8 µg/mL | ≥16 µg/mL | ≤4 µg/mL |  |  | 
9 | Piperacillin/Tazobactam [Pip/Tazo] |  | ≥128/4 | ≤16/4 |  |  | 
10 | Trimethoprim/Sulfamethoxazole [TMP/SMX] |  | ≥4/76 | ≤2/38 |  |  | 
